Where two headings read alike, the source gives them in different places.

In one data set the test system is Phytophthora infestans. In words: whole plant or invertebrate. Conditions: Phytophthora infestans, 72 h, 3 days after the inoculation; for pest or weed control at 200 ppm: 200 ppm a.i.; for pest or weed control at 50 ppm: 50 ppm a.i. In kind it is in vivo.
The subject of the next data set is Septoria tritici. Nature of the data set: Septoria tritici test (wheat)/preventive. In kind it is in vivo. To be noted: 21 days after the inoculation.
Data set [1] relates to apple scab (Venturia inaequalis). In words: Venturia test (apples)/preventive. To be noted: for Efficacy in %, found: Table L2, 10 days after the inoculation.
The next data set has as its system Alternaria solani. In words: Alternaria test (tomatoes)/preventive. Conditions: for pest or weed control at 200 ppm / pest or weed control at 100 ppm: read-out: Efficacy in %, found; for pest or weed control at 12.5 ppm: 12.5 ppm a.i.; for pest or weed control at 25 ppm: 25 ppm a.i. In kind it is in vivo.
Data set [2] deals with Fusarium nivale (var. majus). Nature of the data set: Fusarium nivale (var. majus)-test (wheat)/preventive. Conditions: 5 days after the inoculation.
Data set [3] concerns larvae of the mustard beetle (Phaedon cochleariae). Nature of the data set: Phaedon cochleariae larvae test. In kind it is in vivo. Conditions: for mortality at 200 ppm: 200 ppm a.i. As to the method:
Cabbage leaves (Brassica oleracea) are treated by being sprayed into the preparation of the active compound of the desired concentration and are infested with larvae of the mustard beetle (Phaedon cochleariae) as long as the leaves are still moist. After the specified period of time, the mortality in % is determined. 100% means that all the beetle larvae have been killed; 0% means that none of the beetle larvae have been killed.

Data set [4] relates to larvae of the fall army worm (Spodoptera frugiperda). Nature of the data set: Spodoptera frugiperda test/seed application. Conditions: corn seed treatment. In kind it is in vivo.
Description: 14 days after sowing the leaves were cut off and infested with larvae of the fall army worm (Spodoptera frugiperda). After the specitied period of time, the mortality in % is determined. 100% means that all the caterpillars have been killed; 0% means that none of the caterpillars have been killed.
In the next data set the test system is Fusarium graminearum. In kind it is in vivo. Conditions: 1000 ppm a.i.; 5 days after the inoculation.
The subject of data set [5] is Green peach aphid (Myzus persicae). Nature of the data set: Myzus persicae test. In kind it is in vivo. To be noted: for mortality at 200 ppm: 200 ppm a.i. As to the method:
Cabbage leaves (Brassica oleracea) which are heavily infested by the Green peach aphid (Myzus persicae) are treated by being sprayed into the preparation of the active compound of the desired concentration. After the specified period of time, the mortality in % is determined. 100% means that all the aphids have been killed; 0% means that none of the aphids have been killed.

For data set [6], the system named is larvae of the diamondback moth (Plutella xylostella). Nature of the data set: Plutella xylostella test. To be noted: for mortality at 200 ppm: Plutella xylostella, 200 ppm a.i. In kind it is in vivo. The protocol:
Cabbage leaves (Brassica oleracea) are treated by being sprayed into the preparation of the active compound of the desired concentration and are infested with larvae of the diamondback moth (Plutella xylostella) as long as the leaves are still moist. After the specified period of time, the mortality in % is determined. 100% means that all the caterpillars have been killed; 0% means that none of the caterpillars have been killed.

The test system of a further data set is Pyrenophora teres. Nature of the data set: Pyrenophora teres test (barley)/preventive. In kind it is in vivo. Conditions: 8 days after the inoculation.
The test system of a further data set is Botrytis cinerea. In words: Botrytis test (beans)/preventive. Conditions: 2 days after the inoculation.
Setting [7] is: read-out: Efficacy in %, found, Table I2.
The mark [8] stands for this setting: Venturia inaequalis, 240 h, read-out: Efficacy in %, found.
Setting [9] is: 24 h, after 1 d, read-out: Mortality in % after 1 d, found.
The mark [10] stands for this setting: 48 h, after 2 d, read-out: Mortality in % after 2 d, found.
Setting [11] is: 72 h, after 3 d, read-out: Mortality in % after 3 d, found.
The mark [12] stands for this setting: Alternaria solani, 72 h, read-out: Efficacy in %, found, Table E1, 3 days after the inoculation.
Setting [13] is: Alternaria solani, 72 h, read-out: Efficacy in %, found, Table E2, 3 days after the inoculation.

With `Cc1c(F)c(F)c(COC(=O)[C@@H]2[C@H](/C=C(\Cl)C(F)(F)F)C2(C)C)c(F)c1F` (racemic) [(3A.43), tefluthrin], in the data set with Phytophthora infestans (setting [7]), the pest or weed control at 200 ppm worked out at 0%. Also, the “Efficacy in %, found” value in the data set with Septoria tritici (500 ppm a.i.) was found to be 0%. Moreover, the pest or weed control at 100 ppm in [1] (setting [8]) came to 23%.

As for `CS/C(C)=N\OC(=O)N(C)SN(C)C(=O)O/N=C(\C)SC` [(1A.21), thiodicarb], in the data set on Alternaria solani (Alternaria solani, 72 h), the pest or weed control at 200 ppm came out at 52%. Besides, in [2] (1000 ppm a.i.), the “Efficacy in %, found” value is listed as 0%.

For `O=[N+]([O-])NC1=NCCN1Cc1ccc(Cl)nc1` [(4A.4), imidacloprid], the mortality at 20 ppm in data set [3] (24 h, 20 ppm a.i., after 1 d, read-out: Mortality in % after 1 d, found) turned out to be 0%. Moreover, the “Efficacy in % 1 d after infestation, found” value in data set [4] (0.25 mg a.i./seed) came out at 0%. In the data set on Alternaria solani (Alternaria solani, 72 h), the pest or weed control at 100 ppm was 13% and the pest or weed control at 200 ppm was found to be 30%. In addition, the “Efficacy in %, found” value with Fusarium graminearum came to 0%.

On to `N#C/N=C1\SCCN1Cc1ccc(Cl)nc1` [(4A.6), thiacloprid], for which the mortality at 4 ppm in data set [5] (4 ppm a.i., after 4 h, read-out: Mortality in % after 4 h, found) was determined as 20%. Besides, the pest or weed control at 100 ppm in the data set on Alternaria solani (Alternaria solani, 72 h) is 13%; in the data set on Phytophthora infestans (read-out: Efficacy in %, found, Table I1, 100 ppm a.i.), 16%. Moreover, the pest or weed control at 200 ppm in [1] (setting [8]) turned out to be 4%. For the same compound, the “Efficacy in %, found” value in [2] (1000 ppm a.i.) is 0%.

On to `O=C1C=C(N(Cc2ccc(Cl)nc2)CC(F)F)CO1` [(27.16), 4-{[(6-chloropyridin-3-yl)methyl](2,2-difluoroethyl)amino}furan-2(5H)-one], for which the pest or weed control at 200 ppm amounted to 30% with Phytophthora infestans (setting [7]) and 8% in data set [1] (setting [8]). Also, in the data set with Septoria tritici (1000 ppm a.i.), the “Efficacy in %, found” value is given as 0%.

`Cn1c(=O)c2sc3c(=O)n(C)c(=O)c3sc2c1=O` [(I-1), 2,6-dimethyl-1H,5H-[1,4]dithiino[2,3-c:5,6-c′]dipyrrole-1,3,5,7(2H,6H)-tetrone]: the mortality at 200 ppm in data set [5] (after 4 h, read-out: Mortality in % after 4 h, found) is 0%; in [5] (setting [9]) it was 0%; in data set [5] (setting [10]), 0%; in data set [5] (setting [11]), 0%; in data set [3] (setting [9]) it was 0%; in data set [3] (setting [11]), 0%. Also, the mortality at 200 ppm in data set [6] (setting [9]) and in data set [6] (setting [10]) was 0% in each case. Further, in [4] (1 mg a.i./seed), the “Efficacy in % 1 d after infestation, found” value is given as 0%. In [4] (1 mg a.i./seed), the “Efficacy in % 3 d after infestation, found” value came to 23.8%. Moreover, the pest or weed control at 12.5 ppm in the data set with Alternaria solani (setting [12]) was found to be 13%; with Alternaria solani (setting [13]), 30%; in the data set on Phytophthora infestans (read-out: Efficacy in %, found, Table I1, 12.5 ppm a.i.), 18%; in [1] (setting [8]), 33%. Further, the pest or weed control at 25 ppm in the data set on Alternaria solani (setting [12]) came out at 54%; in the data set with Alternaria solani (setting [13]) it was 50%. In addition, the pest or weed control at 50 ppm came out at 58% in the data set with Alternaria solani (Alternaria solani, 72 h, read-out: Efficacy in %, found, Table E2, 50 ppm a.i., 3 days after the inoculation); 43% in the data set with Phytophthora infestans (read-out: Efficacy in %, found, Table I1); 28% in the data set on Phytophthora infestans (setting [7]); 29% in [1] (setting [8]). For the same compound, the “Efficacy in %, found” value turned out to be 50% in the data set on Fusarium graminearum; 43% with Pyrenophora teres (Table J1, 1000 ppm a.i.); 43% with Pyrenophora teres (Table J2, 500 ppm a.i.); 0% in the data set on Septoria tritici (500 ppm a.i.); 13% in the data set on Botrytis cinerea (25 ppm a.i.); 48% with Botrytis cinerea (50 ppm a.i.). In [2] (500 ppm a.i.), the “Efficacy in %, found” value stood at 29%.

In the case of abamectin [(6.1)], the “Mortality in % after 1 d, found” value in [6] (4 ppm a.i., after 1 d) worked out at 75%. In [4] (0.25 mg a.i./seed), the “Efficacy in % 3 d after infestation, found” value is on record as 4.8%. In addition, the “Efficacy in %, found” value in the data set on Alternaria solani (Table E2, 100 ppm a.i., 3 days after the inoculation) came to 32%; in [1] (100 ppm a.i.) it was 53%; in data set [1] (200 ppm a.i.), 51%.

(Values after patent US8481456B2 (priority 2009, dated 2013).)
